Test results published in patent publication US7902181B2, “Compounds 010” (AstraZeneca AB, priority 2007, dated 2011).
Counter-ions that a name gives are not always drawn.

Molecular target: Recombinant Human (rh) DPP1 (Homo sapiens, UniProt P53634)
Assay: Fluorescence Assay for Recombinant Human (rh) DPP1
Format: biochemical
Details: rhDPP1; substrate H-Gly-Arg-AMC; pH5.0; 30 min pre-incubation, 60 min reaction at 22° C.; highest concentration 10 μM; read-out: DPP1 activity, pIC50 (converted)
Method: Fluorescence Assay for Recombinant Human (rh) DPP1
The activity of DPP1 was determined by measuring the enzymatic release of aminomethyl coumarin (AMC) from the peptide substrate (H-Gly-Arg-AMC), which leads to an increase in fluorescence intensity at λex=350 nm and λem=450 nm. The assay was carried out in black 384 well plates in a final volume of 50 μl at 22° C. The assay conditions contained the following: 25 mM piperazine buffer pH5.0; 50 mM NaCl, 5 mM DTT; 0.01% (v/v) Triton X-100; 100 μM H-Gly-Arg-AMC and rhDPP1 ([…]). Potential inhibitors were made up in DMSO and then diluted in the assay to give a final concentration of 1% (v/v) DMSO. A 12-point half-log dilution of the inhibitors (highest concentration 10 μM) was tested and the pIC50 determined using a 4-parameter logistic equation in a non-linear curve fitting routine. A standard DPP1 inhibitor (vinyl sulfone, see below) was used as a positive control in the assay. Routinely, inhibitors were pre-incubated with rhDPP1 for 30 min prior to the addition of the peptide substrate to start the reaction for a further 60 min at 22° C. After that the plates were immediately read in a fluorescence plate reader using the above emission and excitation wavelengths [modified from Kam, C M, Gotz, M G, Koot, G, McGuire, M J, Thiele, D L, Hudig, D & Powers, J C (2004). Arch Biochem Biophys, 427, 123-134 & McGuire, M J, Lipsky, P E & Thiele, D L (1992). Arch Biochem Biophys, 295, 280-288].

Recombinant Human (rh) DPP1, sequence (P53634 25-463): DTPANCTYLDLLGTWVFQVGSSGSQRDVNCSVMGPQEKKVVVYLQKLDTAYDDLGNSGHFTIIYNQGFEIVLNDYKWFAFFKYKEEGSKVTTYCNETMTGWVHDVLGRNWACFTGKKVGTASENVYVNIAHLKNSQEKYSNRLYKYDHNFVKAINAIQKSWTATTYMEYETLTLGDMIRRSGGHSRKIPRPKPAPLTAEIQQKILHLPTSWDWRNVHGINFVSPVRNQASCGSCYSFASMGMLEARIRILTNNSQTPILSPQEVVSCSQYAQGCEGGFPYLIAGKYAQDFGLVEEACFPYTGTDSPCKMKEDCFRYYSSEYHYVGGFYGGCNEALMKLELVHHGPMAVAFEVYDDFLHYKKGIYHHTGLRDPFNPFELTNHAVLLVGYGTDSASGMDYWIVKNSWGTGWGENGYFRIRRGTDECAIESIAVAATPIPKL

IC50 [nM] | Structure (SMILES)
1260 | COc1ncc(-c2ccc(C[C@@H](C#N)NC(=O)[C@@H]3CCCCN3)cc2)cn1 [Example 46, (2S)-N-[(1S)-1-Cyano-2-[4-(2-methoxypyrimidin-5-yl)phenyl]ethyl]piperidine-2-carboxamide trifluoroacetate]
1260 | CN1CCN(c2ccc(-c3ccc(C[C@@H](C#N)NC(=O)[C@@H]4CCCCN4)cc3)cn2)CC1 [Example 47, (2S)-N-[(1S)-1-Cyano-2-[4-[6-(4-methylpiperazin-1-yl)pyridin-3-yl]phenyl]ethyl]piperidine-2-carboxamide trifluoroacetate]
1580 | N#C[C@H](Cc1ccc(-c2ccccc2O)cc1)NC(=O)[C@@H]1CCCCN1 [Example 48, (2S)-N-[(1S)-1-Cyano-2-[4-(2-hydroxyphenyl)phenyl]ethyl]piperidine-2-carboxamide trifluoroacetate]
2000 | N#C[C@H](Cc1ccc(-c2cccc3cccnc23)cc1)NC(=O)[C@@H]1CCCCN1 [Example 49, (2S)-N-[(1S)-1-Cyano-2-(4-quinolin-8-ylphenyl)phenyl]piperidine-2-carboxamide trifluoroacetate]
2000 | Cc1ccccc1-c1ccc(C[C@@H](C#N)NC(=O)[C@@H]2CCCCN2)cc1 [Example 50, (2S)-N-[(1S)-1-Cyano-2-[4-(2-methylphenyl)phenyl]eth-yl]piperidine-2-carboxamide trifluoroacetate]
2000 | N#C[C@H](Cc1ccc(-c2ccccc2OCc2ccccc2)cc1)NC(=O)[C@@H]1CCCCN1 [Example 51, (2S)-N-[(1S)-1-Cyano-2-[4-(2-phenylmethoxyphenyl)phenyl]ethyl]piperidine-2-carboxamide trifluoroacetate]
3160 | Cc1ncccc1-c1ccc(C[C@@H](C#N)NC(=O)[C@@H]2CCCCN2)cc1 [Example 52, (2S)-N-[(1S)-1-Cyano-2-[4-(2-methylpyridin-3-yl)phenyl]ethyl]piperidine-2-carboxamide trifluoroacetate]
31.6 | N#Cc1ccc(-c2ccc(C[C@@H](C#N)NC(=O)[C@@H]3CCCCN3)cc2)cn1 [Example 53, (S)-N-((S)-1-Cyano-2-(4-(6-cyanopyridin-3-yl)phenyl)ethyl)piperidine-2-carboxamide]
5.01 | N#C[C@H](Cc1ccc(-c2ccc3sc(=O)n(CCO)c3c2)cc1)NC(=O)[C@@H]1CCCCN1 [Example 54, (S)-N-((S)-1-Cyano-2-(4-(3-(2-hydroxyethyl)-2-oxo-2,3-dihydrobenzo[d]thiazol-5-yl)phenyl)ethyl)piperidine-2-carboxamide]
5.01 | COCCn1c(=O)sc2ccc(-c3ccc(C[C@@H](C#N)NC(=O)[C@@H]4CCCCN4)cc3)cc21 [Example 55, (S)-N-((S)-1-cyano-2-(4-(3-(2-methoxyethyl)-2-oxo-2,3-dihydrobenzo[d]thiazol-5-yl)phenyl)ethyl)piperidine-2-carboxamide]
10 | N#Cc1ccc(-c2ccc(C[C@@H](C#N)NC(=O)[C@@H]3CCCCN3)cc2)cc1F [Example 56, (S)-N-((S)-1-Cyano-2-(4′-cyano-3′-fluorobiphenyl-4-yl)ethyl)piperidine-2-carboxamide]
3.16 | CSc1cc(-c2ccc(C[C@@H](C#N)NC(=O)[C@@H]3CCCCN3)cc2)ccc1C#N [Example 57, (S)-N-((S)-1-Cyano-2-(4′-cyano-3′-(methylthio)biphenyl-4-yl)ethyl)-piperidine-2-carboxamide]
15.8 | CS(=O)(=O)c1cc(-c2ccc(C[C@@H](C#N)NC(=O)[C@@H]3CCCCN3)cc2)ccc1C#N [Example 58, (S)-N-((S)-1-Cyano-2-(4′-cyano-3′-(methylsulfonyl)biphenyl-4-yl)ethyl)piperidine-2-carboxamide]
15.8 | CCS(=O)(=O)c1cc(-c2ccc(C[C@@H](C#N)NC(=O)[C@@H]3CCCCN3)cc2)ccc1C#N [Example 59, (S)-N-((S)-1-Cyano-2-(4′-cyano-3′-(ethylsulfonyl)biphenyl-4-yl)ethyl)piperidine-2-carboxamide]
20 | CCCS(=O)(=O)c1cc(-c2ccc(C[C@@H](C#N)NC(=O)[C@@H]3CCCCN3)cc2)ccc1C#N [Example 60, (S)-N-((S)-1-Cyano-2-(4′-cyano-3′-(propylsulfonyl)biphenyl-4-yl)ethyl)piperidine-2-carboxamide]
39.8 | C[S+]([O-])c1cc(-c2ccc(C[C@@H](C#N)NC(=O)[C@@H]3CCCCN3)cc2)ccc1C(N)=O (stereo partly drawn) [Example 61, (2S)-N-((1S)-2-(4′-Carbamoyl-3′-(methylsulfinyl)biphenyl-4-yl)-1-cyanoethyl)piperidine-2-carboxamide]

IC50 [nM] | Structure (SMILES)
15.8 | Cc1nccn1-c1cc(-c2ccc(C[C@@H](C#N)NC(=O)[C@@H]3CCCCN3)cc2)ccc1C#N [Example 62, (2S)-N-((1S)-1-Cyano-2-(4′-cyano-3′-(2-methyl-1H-imidazol-1-yl)biphenyl-4-yl)ethyl)piperidine-2-carboxamide]
7.94 | CSc1ccc(-c2ccc(C[C@@H](C#N)NC(=O)[C@@H]3CCCCN3)cc2)cc1C#N [Example 63, (S)-N-((S)-1-cyano-2-(3′-cyano-4′-(methylthio)biphenyl-4-yl)ethyl)piperidine-2-carboxamide]
10 | CS(=O)(=O)c1ccc(-c2ccc(C[C@@H](C#N)NC(=O)[C@@H]3CCCCN3)cc2)cc1C#N [Example 64, (S)-N-((S)-1-Cyano-2-(3′-cyano-4′-(methylsulfonyl)biphenyl-4-yl)ethyl)piperidine-2-carboxamide]
2 | Cn1c(=O)sc2ccc(-c3ccc(C[C@@H](C#N)NC(=O)[C@@H]4CCCCN4)cc3)cc21 [Example 66, (S)-N-((S)-1-Cyano-2-(4-(3-methyl-2-oxo-2,3-dihydrobenzo[d]thiazol-5-yl)phenyl)ethyl) piperidine-2-carboxamide]
10 | N#C[C@H](Cc1ccc(-c2ccc3c(c2)CNS3(=O)=O)cc1)NC(=O)[C@@H]1CCCCN1 [Example 67, (2S)-N-{(1S)-1-cyano-2-[4-(1,1-dioxido-2,3-dihydro-1,2-benzisothiazol-5-yl)phenyl]ethyl} piperidine-2-carboxamide]
15.8 | N#C[C@H](Cc1ccc(-c2ccc3c(c2)SCC(=O)N3)cc1)NC(=O)[C@@H]1CCCCN1 [Example 68, (S)-N-((S)-1-Cyano-2-(4-(3-oxo-3,4-dihydro-2H-benzo[b][1,4]thia-zin-7-yl)phenyl)ethyl) piperidine-2-carboxamide]
12.6 | CN1Cc2cc(-c3ccc(C[C@@H](C#N)NC(=O)[C@@H]4CCCCN4)cc3)ccc2S1(=O)=O [Example 69]
20 | CCc1ccc(-c2ccc(C[C@@H](C#N)NC(=O)[C@@H]3CCCCN3)cc2)cc1 [Example 70, (S)-N-((S)-1-Cyano-2-(4′-ethylbiphenyl-4-yl)ethyl)piperidine-2-carboxamide Trifluoroacetate]
6.31 | CNS(=O)(=O)c1ccc(-c2ccc(C[C@@H](C#N)NC(=O)[C@@H]3CCCCN3)cc2)cc1 [Example 71, (S)-N-((S)-1-Cyano-2-(4′-(N-methylsulfamoyl)biphenyl-4-yl)ethyl)piperidine-2-carboxamide Trifluoroacetate]
3.98 | N#C[C@H](Cc1ccc(-c2ccc(S(=O)(=O)N3CCC3)cc2)cc1)NC(=O)[C@@H]1CCCCN1 [Example 72, (S)-N-((S)-2-(4′-(Azetidin-1-ylsulfonyl)biphenyl-4-yl)-1-cyanoethyl)piperidine-2-carboxamide Trifluoroacetate]
10 | N#C[C@H](Cc1ccc(-c2ccc(S(=O)(=O)NCCO)cc2)cc1)NC(=O)[C@@H]1CCCCN1 [Example 73, (S)-N-((S)-1-Cyano-2-(4′-(N-(2-hydroxyethyl)sulfamoyl)biphenyl-4-yl)ethyl)piperidine-2-carboxamide]
100 | CNC(=O)c1ccc(-c2ccc(C[C@@H](C#N)NC(=O)[C@@H]3CCCCN3)cc2)cc1 [Example 74, (S)-N-((S)-1-Cyano-2-(4′-(methylcarbamoyl)biphenyl-4-yl)ethyl)piperidine-2-carboxamide Trifluoroacetate]
200 | N#C[C@H](Cc1ccc(-c2ccc(C(=O)N3CCCC3)cc2)cc1)NC(=O)[C@@H]1CCCCN1 [Example 75, (S)-N-((S)-1-Cyano-2-(4′-(pyrrolidine-1-carbonyl)biphenyl-4-yl)ethyl)piperidine-2-carboxamide Trifluoroacetate]
158 | CN1CCN(C(=O)c2ccc(-c3ccc(C[C@@H](C#N)NC(=O)[C@@H]4CCCCN4)cc3)cc2)CC1 [Example 76, (S)-N-((S)-1-Cyano-2-(4′-(4-methylpiperazine-1-carbonyl)biphenyl-4-yl)ethyl)piperidine-2-carboxamide Trifluoroacetate]
31.6 | N#Cc1ccc(-c2ccc(C[C@@H](C#N)NC(=O)[C@@H]3CCCCN3)cn2)cc1 [Example 77, (S)-N-((S)-1-Cyano-2-(6-(4-cyanophenyl)pyridin-3-yl)ethyl)piperidine-2-carboxamide Trifluoroacetate]
